How the values were obtained:
Assay type in all cases: in vivo
[1] = test system: morningglory (Ipomoea spp.); assay: Test A preemergence, morningglory; conditions: 0 to 100 scale
Excerpt: (§1) Seeds of plant species selected from bamyardgrass (Echinochloa crus-galli), kochia (Kochia scoparia), ragweed (common ragweed, Ambrosia elatior), ryegrass, Italian (Italian ryegrass, Lolium multiflorum), foxtail, giant (giant foxtail, Setaria faberii), pigweed (Amaranthus retroflexus), crabgrass, large (large crabgrass, Digitaria sanguinalis), momingglory (Ipomoea spp.), velvetleaf (Abutilon theophrasti), wheat (Triticum aestivum), and corn (Zea mays) were planted into a blend of loam soil and sand and treated preemergence with a directed soil spray using test chemicals formulated in a non-phytotoxic solvent mixture which included a surfactant. At the same time, plants selected from these crop and weed species and also blackgrass (Alopecurus myosuroides), and galium (catchweed bedstraw, Galium aparine) were planted in pots containing the same blend of loam soil and sand and treated with postemergence applications of test chemicals formulated in the same manner. Plants ranged in height from 2 to 10 cm and were in the one- to two-leaf stage for the postemergence treatment. Treated plants and untreated controls were maintained in a greenhouse for approximately 10 days, after which time all treated plants were compared to untreated controls and visually evaluated for injury. Plant response ratings, summarized in Table A, are based on a 0 to 100 scale where 0 is no effect and 100 is complete control. A dash (-) response means no test result.

[2] = test system: barnyardgrass (Echinochloa crus-galli); assay: Test A postemergence, barnyardgrass; conditions: 0 to 100 scale
Excerpt: as §1

[3] = test system: sedge, umbrella (small-flower umbrella sedge, Cyperus difformis); assay: Test B flooded paddy test, sedge, umbrella; conditions: Flood, 250 g ai/ha; scale of 0 to 100
Description: (§2) Plant species in the flooded paddy test selected from rice (Oryza sativa), sedge, umbrella (small-flower umbrella sedge, Cyperus difformis), ducksalad (Heteranthera limosa), and barnyardgrass (Echinochloa crus-galli) were grown to the 2-leaf stage for testing. At time of treatment, test pots were flooded to 3 cm above the soil surface, treated by application of test compounds directly to the paddy water, and then maintained at that water depth for the duration of the test. Treated plants and controls were maintained in a greenhouse for 13 to 15 days, after which time all species were compared to controls and visually evaluated. Plant response ratings, summarized in Table B, are based on a scale of 0 to 100 where 0 is no effect and 100 is complete control. A dash (-) response means no test result.

[4] = test system: crabgrass, large (large crabgrass, Digitaria sanguinalis); assay: Test A preemergence, crabgrass, large; conditions: 0 to 100 scale
Excerpt: as §1

[5] = test system: corn (Zea mays); assay: Test A postemergence, corn; conditions: 0 to 100 scale
Excerpt: as §1

[6] = test system: pigweed (Amaranthus retroflexus); assay: Test A postemergence, pigweed; conditions: 0 to 100 scale
Excerpt: as §1

[7] = test system: ducksalad (Heteranthera limosa); assay: Test B flooded paddy test, ducksalad; conditions: Flood, 250 g ai/ha; scale of 0 to 100
Description: as §2

[8] = test system: barnyardgrass (Echinochloa crus-galli); assay: Test A preemergence, barnyardgrass; conditions: 0 to 100 scale
Excerpt: as §1

[9] = test system: velvetleaf (Abutilon theophrasti); assay: Test A postemergence, velvetleaf; conditions: 0 to 100 scale
Excerpt: as §1

[10] = test system: corn (Zea mays); assay: Test A preemergence, corn; conditions: 0 to 100 scale
Excerpt: as §1

[11] = test system: morningglory (Ipomoea spp.); assay: Test A postemergence, morningglory; conditions: 0 to 100 scale
Excerpt: as §1

[12] = test system: rice (Oryza sativa); assay: Test B flooded paddy test, rice; conditions: Flood, 250 g ai/ha; scale of 0 to 100
Description: as §2

[13] = test system: wheat (Triticum aestivum); assay: Test A postemergence, wheat; conditions: 0 to 100 scale
Excerpt: as §1

[14] = test system: wheat (Triticum aestivum); assay: Test A preemergence, wheat; conditions: 0 to 100 scale
Excerpt: as §1

[15] = test system: foxtail, giant (giant foxtail, Setaria faberii); assay: Test A postemergence, foxtail, giant; conditions: 0 to 100 scale
Excerpt: as §1

[16] = test system: velvetleaf (Abutilon theophrasti); assay: Test A preemergence, velvetleaf; conditions: 0 to 100 scale
Excerpt: as §1

[17] = test system: crabgrass, large (large crabgrass, Digitaria sanguinalis); assay: Test A postemergence, crabgrass, large; conditions: 0 to 100 scale
Excerpt: as §1

[18] = test system: foxtail, giant (giant foxtail, Setaria faberii); assay: Test A preemergence, foxtail, giant; conditions: 0 to 100 scale
Excerpt: as §1

[19] = test system: pigweed (Amaranthus retroflexus); assay: Test A preemergence, pigweed; conditions: 0 to 100 scale
Excerpt: as §1

[20] = test system: kochia (Kochia scoparia); assay: Test A postemergence, kochia; conditions: 0 to 100 scale
Excerpt: as §1

[21] = test system: blackgrass (Alopecurus myosuroides); assay: Test A postemergence, blackgrass; conditions: 0 to 100 scale
Excerpt: as §1

[22] = test system: ryegrass, Italian (Italian ryegrass, Lolium multiflorum); assay: Test A postemergence, ryegrass, Italian; conditions: 0 to 100 scale
Excerpt: as §1

[23] = test system: ragweed (common ragweed, Ambrosia elatior); assay: Test A preemergence, ragweed; conditions: 0 to 100 scale
Excerpt: as §1

[24] = test system: ragweed (common ragweed, Ambrosia elatior); assay: Test A postemergence, ragweed; conditions: 0 to 100 scale
Excerpt: as §1

[25] = test system: kochia (Kochia scoparia); assay: Test A preemergence, kochia; conditions: 0 to 100 scale
Excerpt: as §1

[26] = test system: ryegrass, Italian (Italian ryegrass, Lolium multiflorum); assay: Test A preemergence, ryegrass, Italian; conditions: 0 to 100 scale
Excerpt: as §1

[27] = test system: galium (catchweed bedstraw, Galium aparine); assay: Test A postemergence, galium; conditions: 0 to 100 scale
Excerpt: as §1

[28] = test system: barnyardgrass (Echinochloa crus-galli); assay: Test B flooded paddy test, barnyardgrass; conditions: Flood, 250 g ai/ha; scale of 0 to 100
Description: as §2

Clc1cnc(Oc2cccnc2-n2cc(-c3ccccc3)cn2)nc1 [Compound 4]
Plant response rating, Morningglory ([1]; 125 g ai/ha): 0 | Plant response rating, Morningglory ([1]; 500 g ai/ha): 0 | Plant response rating, Barnyardgrass ([2]; 125 g ai/ha): 0 | Plant response rating, Barnyardgrass ([2]; 500 g ai/ha): 20 | Plant response rating, Sedge, Umbrella [3]: 70 | Plant response rating, Crabgrass, Large ([4]; 125 g ai/ha): 0 | Plant response rating, Crabgrass, Large ([4]; 500 g ai/ha): 0 | Plant response rating, Corn ([5]; 125 g ai/ha): 0 | Plant response rating, Corn ([5]; 500 g ai/ha): 30 | Plant response rating, Pigweed ([6]; 125 g ai/ha): 20 | Plant response rating, Pigweed ([6]; 500 g ai/ha): 70 | Plant response rating, Ducksalad [7]: 0 | Plant response rating, Barnyardgrass ([8]; 125 g ai/ha): 0 | Plant response rating, Barnyardgrass ([8]; 500 g ai/ha): 0 | Plant response rating, Velvetleaf ([9]; 125 g ai/ha): 0 | Plant response rating, Velvetleaf ([9]; 500 g ai/ha): 0 | Plant response rating, Corn ([10]; 125 g ai/ha): 0 | Plant response rating, Corn ([10]; 500 g ai/ha): 0 | Plant response rating, Morningglory ([11]; 125 g ai/ha): 0 | Plant response rating, Morningglory ([11]; 500 g ai/ha): 10 | Plant response rating, Rice [12]: 10 | Plant response rating, Wheat ([13]; 125 g ai/ha): 0 | Plant response rating, Wheat ([13]; 500 g ai/ha): 0 | Plant response rating, Wheat ([14]; 125 g ai/ha): 0 | Plant response rating, Wheat ([14]; 500 g ai/ha): 0 | Plant response rating, Foxtail, Giant ([15]; 125 g ai/ha): 0 | Plant response rating, Foxtail, Giant ([15]; 500 g ai/ha): 0 | Plant response rating, Velvetleaf ([16]; 125 g ai/ha): 0 | Plant response rating, Velvetleaf ([16]; 500 g ai/ha): 0 | Plant response rating, Crabgrass, Large ([17]; 125 g ai/ha): 0 | Plant response rating, Crabgrass, Large ([17]; 500 g ai/ha): 0 | Plant response rating, Foxtail, Giant ([18]; 125 g ai/ha): 0 | Plant response rating, Foxtail, Giant ([18]; 500 g ai/ha): 0 | Plant response rating, Pigweed ([19]; 125 g ai/ha): 0 | Plant response rating, Pigweed ([19]; 500 g ai/ha): 0

Clc1ccc(-c2cccnc2Oc2ncc(Cl)cn2)nc1 [Compound 12, 5-chloro-2-[(5-chloro[2,3′-bipyridin]-2′-yl)oxy]pyrimidine]
Plant response rating, Barnyardgrass ([2]; 31 g ai/ha): 0 | Plant response rating, Barnyardgrass ([2]; 125 g ai/ha): 30 | Plant response rating, Sedge, Umbrella [3]: 30 | Plant response rating, Corn ([5]; 31 g ai/ha): 0 | Plant response rating, Corn ([5]; 125 g ai/ha): 10 | Plant response rating, Pigweed ([6]; 31 g ai/ha): 10 | Plant response rating, Pigweed ([6]; 125 g ai/ha): 30 | Plant response rating, Ducksalad [7]: 30 | Plant response rating, Barnyardgrass ([8]; 31 g ai/ha): 0 | Plant response rating, Barnyardgrass ([8]; 125 g ai/ha): 0 | Plant response rating, Kochia ([20]; 31 g ai/ha): 0 | Plant response rating, Kochia ([20]; 125 g ai/ha): 40 | Plant response rating, Blackgrass ([21]; 31 g ai/ha): 0 | Plant response rating, Blackgrass ([21]; 125 g ai/ha): 0 | Plant response rating, Ryegrass, Italian ([22]; 31 g ai/ha): 0 | Plant response rating, Ryegrass, Italian ([22]; 125 g ai/ha): 0 | Plant response rating, Rice [12]: 20 | Plant response rating, Ragweed ([23]; 31 g ai/ha): 0 | Plant response rating, Ragweed ([23]; 125 g ai/ha): 0 | Plant response rating, Wheat ([13]; 31 g ai/ha): 0 | Plant response rating, Wheat ([13]; 125 g ai/ha): 0 | Plant response rating, Foxtail, Giant ([15]; 31 g ai/ha): 0 | Plant response rating, Foxtail, Giant ([15]; 125 g ai/ha): 0 | Plant response rating, Ragweed ([24]; 31 g ai/ha): 0 | Plant response rating, Ragweed ([24]; 125 g ai/ha): 10 | Plant response rating, Kochia ([25]; 31 g ai/ha): 0 | Plant response rating, Kochia ([25]; 125 g ai/ha): 40 | Plant response rating, Ryegrass, Italian ([26]; 31 g ai/ha): 0 | Plant response rating, Ryegrass, Italian ([26]; 125 g ai/ha): 0 | Plant response rating, Galium ([27]; 31 g ai/ha): 10 | Plant response rating, Galium ([27]; 125 g ai/ha): 10 | Plant response rating, Foxtail, Giant ([18]; 31 g ai/ha): 0 | Plant response rating, Foxtail, Giant ([18]; 125 g ai/ha): 0 | Plant response rating, Pigweed ([19]; 31 g ai/ha): 0 | Plant response rating, Pigweed ([19]; 125 g ai/ha): 60 | Plant response rating, Barnyardgrass [28]: 0

Reference: US11006631B2, “Substituted pyrimidinyloxy pyridine derivatives as herbicides” (FMC Corporation, priority 2015, dated 2021)
